Test results published in patent US20220235030A1, “SELECTIVE HISTAMINE H3 ANTAGONIST ACID ADDITION SALTS AND PROCESS FOR THE PREPARATION THEREOF” (RICHTER GEDEON NYRT., priority 2019, published 2022).
Entries after “also recorded” stand apart in the source; their conditions may differ. Structures can show the parent of a compound that is named as a salt.

Tests used:
Type in all cases: physicochemical
[1] = Dynamic vapor sorption (DVS) analysis at 25° C., hygroscopicity and deliquescence; parameters: Δm/ΔRH: unit not given beside the values; conditions: for Δm/ΔRH: 25° C.
Protocol: Determination of the critical relative humidity is feasible by gravimetric method, e.g. with DVS, where relative humidity is changed in suitably selected steps and a sufficiently long time is used to the onset of quasi-equilibrium.
The deliquescence tendency of each salt is characterized by the critical relative humidity (CRH) value (Table 1), which was determined based on the sorption curves measured according to the measurement parameter settings below, with DVS analysis at 25° C. isotherm conditions, according to the following. […]
If the given sorption step is Δm/ΔRH≥0.5, then RH1 is considered to be the critical relative humidity (CRH) value indicating the end point of the physical stability of the substance. The value thus determined is a good match with the onset of a significant monotonic weight gain observed visually on the sorption curve. Above the critical relative humidity value, it is the process of deliquescence of the substance that determines the weight gain observed on the sorption curve.

[2] = Thermogravimetric (TG) analysis of thermal stability
Text: The compound of 1-[4-(4-{3-[(2R)-2-methyl-pyrrolidin-1-yl]-propoxy}-phenoxy)-piperidin-1-yl]-ethanone contains a single strongly basic center (pyrrolidine nitrogen), which is capable of forming stoichiometric salt with equimolar hydrochloride, thus the formation of dihydrochloride stoichiometry is not expected in view of the acid/base character of the compound. Based on TG and DSC analysis, the second molar amount of hydrochloride is less strongly bound to the crystal lattice, behaving as a volatile component. […] (FIG. 8). Parallelly to this process, according to the DSC and microscopic analysis, the sample starting from approx. 100° C. melts during decomposition (FIG. 9).

[3] = Solubility in simulated gastric fluid; conditions: simulated gastric fluid (SGF without pepsin, pH=1.3); dihydrochloride salt
Text: The generally observed hygroscopic nature of the 1-[4-(4-{3-[(2R)-2-methyl-pyrrolidin-1-yl]-propoxy}-phenoxy)-piperidin-1-yl]-ethanone salts is inter alia related to the good solubility thereof.

[4] = 10-day solid stress stability study, HPLC purity test; conditions: dihydrochloride salt
Text: Increased stability to ambient humidity is beneficial for longer-term physical and chemical stability of the active ingredient. The relationship between the reduced hygroscopic nature and the increased chemical stability associated with it is shown in the most preferred citrate salts in comparison to the dihydrochloride salt.

- Critical Relative Humidity (CRH) ([1]; DVS at 25° C., RH1 of first sorption step with Δm/ΔRH≥0.5, dihydrochloride salt): 60%
- Δm/ΔRH ([1]; RH1 0%, sorption, dihydrochloride salt): 0.0
- Δm/ΔRH ([1]; RH1 10%, sorption, dihydrochloride salt): 0.0
- Δm/ΔRH ([1]; RH1 20%, sorption, dihydrochloride salt): 0.0
- Δm/ΔRH ([1]; RH1 30%, sorption, dihydrochloride salt): 0.0
- Δm/ΔRH ([1]; RH1 40%, sorption, dihydrochloride salt): 0.0
- Δm/ΔRH ([1]; RH1 50%, sorption, dihydrochloride salt): 0.0
- Δm/ΔRH ([1]; RH1 60%, sorption, dihydrochloride salt): 1.7
- Δm/ΔRH ([1]; RH1 70%, sorption, dihydrochloride salt): 2.4
- Δm/ΔRH ([1]; RH1 80%, sorption, dihydrochloride salt): 2.1
- hygroscopicity (in words) ([1]; dihydrochloride salt): highly hygroscopic
- relative weight gain ([1]; sorption curve, at 70% RH): 17%
- relative weight change ([1]; sorption curve, at 90% RH): 63%
- water bound relative to the dried mass ([1]; sorption curve, up to 60% RH): about 0.7%
- relative humidity above which high, continuous weight gain (deliquescence) is observed ([1]; sorption, DVS at 25° C., dihydrochloride salt): above 60%
- thermal stability (in words) [2]: thermally poorly stable
- solubility [3]: greater than 59 mM
- All contaminant (area %) ([4]; 10 days, 40° C., 75% RH, open glass): 59.56% area %
- All contaminant (area %) ([4]; 10 days, 50° C., 75% RH, open glass): 51.32% area %
- All contaminant (area %) ([4]; 10 days, 50° C., sealed glass): 0.98% area %
- All contaminant (area %) ([4]; 10 days, 75° C., sealed glass): 1.50% area %
- All contaminant (area %) ([4]; starting sample): 0.85% area %
Compound: CC(=O)N1CCC(Oc2ccc(OCCCN3CCC[C@H]3C)cc2)CC1 [diHCl, 1-[4-(4-{3-[(2R)-2-methyl-pyrrolidin-1-yl]-propoxy}-phenoxy)-piperidin-1-yl]-ethanone dihydrochloride salt]
- chemical stability (in words) ([4]; 10-day solid stress: heat, heat and humidity): slightly degraded by heat; also recorded: degrades significantly under the combined effect of heat and humidity
